Test results taken from paper PMC6273065, “Synthesis, Molecular Modelling and Biological Evaluation of Novel Heterodimeric, Multiple Ligands Targeting Cholinesterases and Amyloid Beta” (Molecules, 2016).

Tests used:
[1] = target: T1, EeAChE (Electrophorus electricus, UniProt O42275); assay: biochemical; format: biochemical; conditions: for EeAChE inhibitory activity in words: Ellman's assay
T1 construct: purchased Sigma–Aldrich
Method: (§1) Ellman’s method was used to determine the activity of the synthesized compounds against AChE from electric eel (Electrophorus electricus, EeAChE) and BuChE from equine serum (EqBuChE).
(§2) All assays were performed in 0.1 M phosphate buffer pH 8.0. The tested compounds or water in a blank sample (25 µL) were incubated with the enzyme (20 µL) for 5 min at 25 °C in buffer (765 µL) prior to starting the reaction. Then, DTNB (20 µL) and ATC (20 µL) were added. […] Each condition was measured in triplicate. The percentages of enzyme inhibition were calculated from the equation 100%—Ai/A0 × 100%, where Ai is the absorbance of a sample with an inhibitor and A0 is the absorbance of a blank sample (100% activity of the enzyme). The IC50 values were calculated using GraphPad Prism 5. Data is expressed as mean ± SEM.

[2] = target: T2, EqBuChE (Equus caballus, UniProt P81908); assay: biochemical
T2 construct: BuChE from equine serum (EqBuChE, Sigma–Aldrich); purchased Sigma–Aldrich; host or cells: equine serum
T2 sequence (P81908 whole entry): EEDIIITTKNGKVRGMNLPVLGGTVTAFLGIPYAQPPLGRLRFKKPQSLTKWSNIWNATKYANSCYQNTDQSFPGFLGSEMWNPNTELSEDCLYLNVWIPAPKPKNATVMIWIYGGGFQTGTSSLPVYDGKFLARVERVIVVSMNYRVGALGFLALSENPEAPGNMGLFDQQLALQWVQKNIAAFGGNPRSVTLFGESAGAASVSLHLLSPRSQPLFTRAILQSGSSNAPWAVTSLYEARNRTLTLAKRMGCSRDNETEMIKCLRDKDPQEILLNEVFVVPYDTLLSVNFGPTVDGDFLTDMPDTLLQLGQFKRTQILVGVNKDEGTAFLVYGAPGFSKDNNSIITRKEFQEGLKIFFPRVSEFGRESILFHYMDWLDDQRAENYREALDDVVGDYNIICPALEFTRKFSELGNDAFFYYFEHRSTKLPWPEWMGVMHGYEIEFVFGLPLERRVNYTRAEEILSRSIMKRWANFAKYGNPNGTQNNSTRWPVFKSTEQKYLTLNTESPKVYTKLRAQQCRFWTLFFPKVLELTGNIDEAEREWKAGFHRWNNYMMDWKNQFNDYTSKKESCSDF
Method: as §1, §2

[3] = PAMPA-BBB; for Log Pe: 2 h at 37 °C, means of two replicates; for Prediction of BBB penetration: class from log Pe
Method: For anti-Alzheimer drug candidates, the ability to cross the blood–brain barrier and to enter the central nervous system (CNS) is crucial to achieve their pharmacological target and activity.
The BBB-PAMPA Explorer Test System was purchased from pION Inc. The in vitro permeability through BBB-1 lipid membrane was determined for 7 commercial drugs and the tested compounds. The compounds were dissolved in DMSO (10 mM stock solution) and diluted with Prisma HT buffer (5 µL/1 mL). Then, the […] 96-well microplate was filled with solution of the tested compounds in buffer (200 µL/well). The filter membrane in acceptor 96-well microplate was impregnated with BBB-1 lipid solution (5 µL/well) and the acceptor plate was filled with Brain Sink Buffer (200 µL/well). The acceptor plate was carefully placed on the donor plate to form a sandwich that was left undisturbed for 2 h at 37 °C. After incubation, the donor plate was carefully removed. The concentration of compounds in the acceptor, the donor, and the reference wells were measured using EnSpire Multimode Microplate Reader (PerkinElmer).

[4] = target: T3, Aβ1–42 (Homo sapiens, UniProt P05067); assay: Thioflavin-T fluorometric assay of self-induced Aβ1–42 aggregation; format: biochemical; conditions: 10 µM compound, 1.5 µM Aβ1–42; mean ± SD; <10 = defined as not active; read-out: Aβ1–42 Aggreg. % of inhibition
T3 construct: Recombinant human HFIP-pretreated Aβ1–42 peptide; purchased Merck Millipore Lot number 2387442
T3 sequence (P05067 672-713): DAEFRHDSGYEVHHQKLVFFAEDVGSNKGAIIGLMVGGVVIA
Text: Mechanisms of Aβ aggregation remain unclear. Besides the self-induced assembly of Aβ, several other factors affect its aggregation, including metal ions, AChE [45], and oxidative stress. Therefore, we evaluated our compounds using the most versatile and commonly used Aβ1–42 aggregation Thioflavin T assay. Seven structurally diverse compounds were selected (one from each subseries) to test their ability to inhibit self-induced Aβ1–42 aggregation.
Thioflavin-T (ThT) fluorometric assay was performed to investigate the effect of the test compounds on the self-aggregation of Aβ1–42. […] Each sample was prepared in quadruplicate, and the DMSO was always at 3%. To quantify amyloid fibril formation, the ThT fluorescence was measured through the bottom of the plate every 180 s at an excitation wavelength of 440 nm and emission wavelength of 490 nm, with the medium continuously shaking between measurements using a 96-well microplate reader (Synergy™ H4, BioTek Instruments, Inc., Winooski, VT, USA). […] The fluorescence intensities at the plateau in the absence and presence of the test compounds were averaged, and the average fluorescence of the corresponding wells at t = 0 h was subtracted.

T1 sequence (O42275 24-633): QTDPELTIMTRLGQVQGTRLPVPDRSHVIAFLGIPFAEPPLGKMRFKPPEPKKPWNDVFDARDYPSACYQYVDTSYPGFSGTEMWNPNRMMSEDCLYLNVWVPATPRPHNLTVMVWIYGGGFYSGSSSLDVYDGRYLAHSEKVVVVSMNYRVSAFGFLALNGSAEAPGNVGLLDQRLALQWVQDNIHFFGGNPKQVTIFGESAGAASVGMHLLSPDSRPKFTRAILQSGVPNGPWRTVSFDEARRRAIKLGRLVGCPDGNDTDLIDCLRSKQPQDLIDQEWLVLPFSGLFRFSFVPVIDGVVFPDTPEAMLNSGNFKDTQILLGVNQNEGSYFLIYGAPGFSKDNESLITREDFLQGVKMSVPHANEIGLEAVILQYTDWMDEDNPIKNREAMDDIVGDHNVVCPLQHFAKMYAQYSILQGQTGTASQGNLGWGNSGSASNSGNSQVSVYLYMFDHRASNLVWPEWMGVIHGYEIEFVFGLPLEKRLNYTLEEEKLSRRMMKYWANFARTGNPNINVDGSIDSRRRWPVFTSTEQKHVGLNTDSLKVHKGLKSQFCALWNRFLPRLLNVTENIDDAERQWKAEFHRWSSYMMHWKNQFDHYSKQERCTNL

SMILES | IC50 [1] | IC50 [2] | EeAChE inhibitory activity in words [1] | Log Pe [3] | Prediction of BBB penetration [3] | inhibition at 10 µM [4]
CCN(CC)CCCCCCCn1ccc2ccccc21 [Compound 34, N,N-Diethyl-7-(1H-indol-1-yl)heptan-1-amine] | 22.2 ± 0.424 µM | 1.47 ± 0.593 µM |  |  |  | 
O=C1c2ccccc2C(=O)N1CCCCCN1CCOCC1 [Compound 5, 2-(5-Morpholinopentyl)isoindoline-1,3-dione] | 18.1 ± 0.402 µM | > 50 µM |  |  |  | 
O=C1c2ccccc2C(=O)N1CCCCCCCCCCN1CCc2ccccc2C1 [Compound 14, 2-(10-(3,4-Dihydroisoquinolin-2(1H)-yl)decyl)isoindoline-1,3-dione] | > 50 µM | 1.73 ± 0.038 µM | not active |  |  | 
CCN(CC)CCCCCN1CCc2ccccc2C1 [Compound 20, 5-(3,4-dihydroisoquinolin-2(1H)-yl)-N,N-diethylpentan-1-amine] | > 50 µM | > 50 µM |  |  |  | 
O=C1c2ccccc2C(=O)N1CCCCCCCN1CCOCC1 [Compound 7, 2-(7-Morpholinoheptyl)isoindoline-1,3-dione] | 4.11 ± 0.066 µM | > 50 µM |  | –4.2 | CNS+ (CNS+, log Pe > −4.5, high permeability (i.e., can enter the CNS)) | 17.1 ± 6.13%
CCN(CC)CCCCCn1ccc2ccccc21 [Compound 32, N,N-Diethyl-5-(1H-indol-1-yl)pentan-1-amine] | > 50 µM | 22.6 ± 0.602 µM |  |  |  | 
CCN(CC)CCCCn1ccc2ccccc21 [Compound 31, N,N-diethyl-4-(1H-indol-1-yl)butan-1-amine] | > 50 µM | 26 ± 0.813 µM |  |  |  | 
O=C1c2ccccc2S(=O)(=O)N1CCCCCCCNCc1ccccc1F [Compound 41, 2-(7-(2-fluorobenzylamino)heptyl)benzo[d]isothiazol-3(2H)-one 1,1-dioxide] | 0.735 ± 0.009 µM | 4.97 ± 0.127 µM |  |  |  | 
O=C1c2ccccc2C(=O)N1CCCCN1CCc2ccccc2C1 [Compound 9, 2-(4-(3,4-dihydroisoquinolin-2(1H)-yl)butyl)isoindoline-1,3-dione] | 5.6 ± 0.087 µM | 12.82 ± 0.107 µM |  |  |  | 
O=C1c2ccccc2C(=O)N1CCCCCCN1CCOCC1 [Compound 6, 2-(6-Morpholinohexyl)isoindoline-1,3-dione] | 17.2 ± 0.474 µM | > 50 µM |  |  |  | 
Cn1c(=O)c2[nH]cnc2n(C)c1=O [Theophylline, reference compound] |  |  |  | –6.3 |  | 
CCN(CC)CCCCCCCN1CCc2ccccc2C1 [Compound 22, 7-(3,4-Dihydroisoquinolin-2(1H)-yl)-N,N-diethylheptan-1-amine] | 17.3 ± 0.401 µM | 37.1 ± 0.878 µM |  |  |  | 
CC(=O)[C@H]1CC[C@H]2[C@@H]3CCC4=CC(=O)CC[C@]4(C)[C@H]3CC[C@]12C [Progesterone, reference compound] |  |  |  |  | CNS+ (CNS+, log Pe > −4.5, high permeability (i.e., can enter the CNS)) | 
O=C1c2ccccc2S(=O)(=O)N1CCCCCNCc1ccccc1F [Compound 39, 2-(5-(2-fluorobenzylamino)pentyl)benzo[d]isothiazol-3(2H)-one 1,1-dioxide] | 0.15 ± 0.003 µM | > 50 µM |  | –4.0 | CNS+ (CNS+, log Pe > −4.5, high permeability (i.e., can enter the CNS)) | 12.3 ± 2.63%
O=C1c2ccccc2C(=O)N1CCCCCCCCN1CCOCC1 [Compound 8, 2-(8-Morpholinooctyl)isoindoline-1,3-dione] | 4.5 ± 0.064 µM | > 50 µM |  |  |  | 
CCN(CC)CCCCCCN1CCc2ccccc2C1 [Compound 21, 6-(3,4-Dihydroisoquinolin-2(1H)-yl)-N,N-diethylhexan-1-amine] | > 50 µM | > 50 µM |  |  |  | 
O=C1c2ccccc2C(=O)N1CCCCCCN1CCCC1 [Compound 2, 2-(6-(Pyrrolidin-1-yl)hexyl)isoindoline-1,3-dione] | 0.643 ± 0.006 µM | > 50 µM |  |  |  | 
O=C1c2ccccc2C(=O)N1CCCCCCCCN1CCc2ccccc2C1 [Compound 13, 2-(8-(3,4-Dihydroisoquinolin-2(1H)-yl)octyl)isoindoline-1,3-dione] | 0.76 ± 0.017 µM | 0.618 ± 0.009 µM |  | –4.2 | CNS+ (CNS+, log Pe > −4.5, high permeability (i.e., can enter the CNS)) | 35.8 ± 5.39%
O=C1c2ccccc2S(=O)(=O)N1CCCCCCNCc1cccc(Cl)c1 [Compound 43, 2-(6-(3-chlorobenzylamino)hexyl)benzo[d]isothiazol-3(2H)-one 1,1-dioxide] | 0.596 ± 0.006 µM | 6.54 ± 0.163 µM |  |  |  | 
CCN(CC)CCCCCCCCn1ccc2ccccc21 [Compound 35, N,N-Diethyl-8-(1H-indol-1-yl)octan-1-amine] | 9.56 ± 0.289 µM | 3.47 ± 0.1 µM |  |  |  | 16.6 ± 2.74%
O=C1c2ccccc2C(=O)N1CCCCCCCN1CCc2ccccc2C1 [Compound 12, 2-(7-(3,4-Dihydroisoquinolin-2(1H)-yl)heptyl)isoindoline-1,3-dione] | 0.688 ± 0.017 µM | 1.17 ± 0.027 µM |  |  |  | 
O=C1c2ccccc2S(=O)(=O)N1CCCCCCCNCc1cccc(Cl)c1 [Compound 44, 2-(7-(3-chlorobenzylamino)heptyl)benzo[d]isothiazol-3(2H)-one 1,1-dioxide] | 0.923 ± 0.012 µM | 2.46 ± 0.032 µM |  |  |  | 
O=C1c2ccccc2S(=O)(=O)N1CCCCCCNCc1ccccc1F [Compound 40, 2-(6-(2-fluorobenzylamino)hexyl)benzo[d]isothiazol-3(2H)-one 1,1-dioxide] | 1.14 ± 0.015 µM | > 50 µM |  |  |  | 
CCN(CC)CCCCCCn1ccc2ccccc21 [Compound 33, N,N-Diethyl-6-(1H-indol-1-yl)hexan-1-amine] | > 50 µM | 28.7 ± 0.723 µM |  |  |  | 
O=C1c2ccccc2C(=O)N1CCCCCN1CCCC1 [Compound 1, 2-(5-(Pyrrolidin-1-yl)pentyl)isoindoline-1,3-dione] | 0.781 ± 0.009 µM | > 50 µM |  |  |  | 
CCN(CC)CCCCCCCCN1CCc2ccccc2C1 [Compound 23, 8-(3,4-Dihydroisoquinolin-2(1H)-yl)-N,N-diethyloctan-1-amine] | 4.72 ± 0.149 µM | 14 ± 0.343 µM |  |  |  | < 10%
O=C1c2ccccc2C(=O)N1CCCCCCCCCCCCN1CCc2ccccc2C1 [Compound 15, 2-(12-(3,4-Dihydroisoquinolin-2(1H)-yl)dodecyl)isoindoline-1,3-dione] | > 50 µM | 3.66 ± 0.085 µM | not active |  |  | 
CCN(CC)CCCn1ccc2ccccc21 [Compound 30, N,N-diethyl-3-(1H-indol-1-yl)propan-1-amine] | > 50 µM | > 50 µM |  |  |  | 
CC(C)NCC(O)COc1cccc2ccccc12 (stereo not shown) [Propranolol, reference compound] |  |  |  |  | CNS+ (CNS+, log Pe > −4.5, high permeability (i.e., can enter the CNS)) | 
O=C1c2ccccc2C(=O)N1CCCCCN1CCc2ccccc2C1 [Compound 10, 2-(5-(3,4-dihydroisoquinolin-2(1H)-yl)pentyl)isoindoline-1,3-dione] | 1.266 ± 0.011 µM | 5.31 ± 0.16 µM |  |  |  | 
